Measured values from ChEMBL document CHEMBL1140113, “Structural requirements for drug inhibition of the liver specific human organic cation transport protein 1” (J Med Chem, 2008).

The compounds below were run against T1, OCT1 (SLC22A1) (Homo sapiens, UniProt O15245) (assay: in vitro). Conditions: HEK293 cells that express human OCT1, probe 4-(4-(dimethylamino)styryl)-N-methylpyridinium.
T1 sequence (O15245 whole entry): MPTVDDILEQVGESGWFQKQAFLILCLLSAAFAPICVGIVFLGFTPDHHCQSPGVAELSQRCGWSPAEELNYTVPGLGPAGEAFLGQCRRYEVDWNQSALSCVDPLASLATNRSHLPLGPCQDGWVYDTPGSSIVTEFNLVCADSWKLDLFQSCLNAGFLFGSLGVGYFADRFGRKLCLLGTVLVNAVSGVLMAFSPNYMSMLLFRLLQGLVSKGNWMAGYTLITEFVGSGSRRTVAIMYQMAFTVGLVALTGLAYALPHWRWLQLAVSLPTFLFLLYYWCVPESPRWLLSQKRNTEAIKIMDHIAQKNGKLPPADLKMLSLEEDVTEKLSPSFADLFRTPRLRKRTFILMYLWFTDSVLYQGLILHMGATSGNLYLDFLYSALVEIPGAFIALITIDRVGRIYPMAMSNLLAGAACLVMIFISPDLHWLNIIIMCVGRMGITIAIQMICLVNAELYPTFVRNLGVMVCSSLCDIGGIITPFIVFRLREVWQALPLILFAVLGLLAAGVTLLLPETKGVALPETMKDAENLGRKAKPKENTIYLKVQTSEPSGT

Compound | inhibition at 100 µM [%]
CCOc1nc2cccc(C(=O)O)c2n1Cc1ccc(-c2ccccc2-c2nnn[nH]2)cc1 | 6.3
CC1=C(CC(=O)O)c2cc(F)ccc2/C1=C\c1ccc([S+](C)[O-])cc1 (stereo not drawn) | 27.1
CC(C)NC[C@H](O)c1ccc(O)c(O)c1 | 15.6
N=C(N)c1ccc(CNC(=O)[C@@H]2CCN2C(=O)[C@H](NCC(=O)O)C2CCCCC2)cc1 | -0.2
CC(C)[N+]1(C)[C@@H]2CC[C@H]1C[C@@H](OC(=O)C(CO)c1ccccc1)C2 (stereo partly drawn) | 43.4
CC(C)(C)NC(=O)[C@@H]1CN(Cc2cccnc2)CCN1C[C@@H](O)C[C@@H](Cc1ccccc1)C(=O)N[C@H]1c2ccccc2C[C@H]1O | 43
CCOC(=O)[C@H](CCc1ccccc1)N[C@@H](C)C(=O)N1CCC[C@H]1C(=O)O | 14.6
COc1ccc(CCN(C)CCCC(C#N)(c2ccc(OC)c(OC)c2)C(C)C)cc1OC (stereo not drawn) | 86.4
COc1ccc(CCN(C)CCCC(C#N)(c2cc(OC)c(OC)c(OC)c2)C(C)C)cc1OC (racemic) [METHOXYVERAPAMIL] | 78.1
COc1cc(C(O)CN)ccc1O (racemic) [NORMETANEPHRINE] | -2.4
COc1cc2c(cc1O)CC[C@@H]1[C@@H]2CC[C@]2(C)[C@@H](O)CC[C@@H]12 [2-METHOXYESTRADIOL] | 74.3
C[C@H]1O[C@H](O[C@H]2[C@H](O)[C@@H](O)[C@@H](O[C@H]3[C@H](O)[C@@H](O)C(O)O[C@@H]3CO)O[C@@H]2CO)[C@H](O)[C@@H](O)[C@@H]1N[C@H]1C=C(CO)[C@@H](O)[C@H](O)[C@H]1O (stereo partly drawn) [ACARBOSE] | 3.9
CCCC(=O)Nc1ccc(OCC(O)CNC(C)C)c(C(C)=O)c1 (stereo not drawn) [ACEBUTOLOL] | 40.9
CCN(CC)CCNC(=O)c1ccc(NC(C)=O)cc1 [ACECAINIDE] | 13.7
CC(=O)Nc1ccc(O)cc1 [ACETAMINOPHEN] | -9.2
CC(=O)N[C@@H](CS)C(=O)O [ACETYLCYSTEINE] | 15.5
Nc1nc2c(ncn2COCCO)c(=O)[nH]1 [ACYCLOVIR] | -3.9
N=C(N)NCCCCN [AGMATINE] | 2.1
Oc1ncnc2[nH]ncc12 [ALLOPURINOL] | 7.7
CC1(C)S[C@@H]2[C@H](NC(=O)[C@H](N)c3ccccc3)C(=O)N2[C@H]1C(=O)O [AMPICILLIN] | 20.3
C[C@]12CCC(=O)C=C1CC[C@@H]1[C@@H]2CC[C@]2(C)C(=O)CC[C@@H]12 [ANDROSTENEDIONE] | 65.1
Cc1cc(=O)n(-c2ccccc2)n1C [ANTIPYRINE] | 20.7
NC(N)=NCCCCN=C(N)N [ARCAINE] | 4.5

Compound | inhibition at 100 µM [%]
CC(=O)Oc1ccccc1C(=O)O [ASPIRIN] | -5.7
CN1[C@@H]2CC[C@H]1C[C@@H](OC(=O)C(CO)c1ccccc1)C2 (stereo partly drawn) [ATROPINE] | 76.5
NCC(CC(=O)O)c1ccc(Cl)cc1 (stereo not drawn) [BACLOFEN] | 20.7
CCCC1O[C@@H]2C[C@H]3[C@@H]4CCC5=CC(=O)C=C[C@]5(C)[C@H]4[C@@H](O)C[C@]3(C)[C@]2(C(=O)CO)O1 (stereo partly drawn) [BUDESONIDE] | 38.2
O=C1CC2(CCCC2)CC(=O)N1CCCCN1CCN(c2ncccn2)CC1 [BUSPIRONE] | 24.7
Cn1c(=O)c2c(ncn2C)n(C)c1=O [CAFFEINE] | -1.4
C[C@H](CS)C(=O)N1CCC[C@H]1C(=O)O [CAPTOPRIL] | 0.3
NC(=O)N1c2ccccc2C=Cc2ccccc21 [CARBAMAZEPINE] | 8.4
CCCC(C)(COC(N)=O)COC(=O)NC(C)C (stereo not drawn) [CARISOPRODOL] | 19.8
Cc1ccc(-c2cc(C(F)(F)F)nn2-c2ccc(S(N)(=O)=O)cc2)cc1 [CELECOXIB] | 7.7
CC1=C(C(=O)O)N2C(=O)[C@@H](NC(=O)[C@H](N)c3ccccc3)[C@H]2SC1 [CEPHALEXIN ANHYDROUS] | -1.9
O=C(O)COCCN1CCN(C(c2ccccc2)c2ccc(Cl)cc2)CC1 (stereo not drawn) [CETIRIZINE] | -4.8
O=C(N[C@H](CO)[C@H](O)c1ccc([N+](=O)[O-])cc1)C(Cl)Cl [CHLORAMPHENICOL] | 1.4
CCN(CC)CCCC(C)Nc1ccnc2cc(Cl)ccc12 (stereo not drawn) [CHLOROQUINE] | 46
CCC[C@@H]1C[C@@H](C(=O)N[C@@H]([C@H]2O[C@H](SC)[C@H](O)[C@@H](O)[C@H]2O)[C@H](C)Cl)N(C)C1 [CLINDAMYCIN] | 19.5
O=P(O)(O)C(Cl)(Cl)P(=O)(O)O [CLODRONIC ACID] | 5.6
Clc1ccccc1C(c1ccccc1)(c1ccccc1)n1ccnc1 [CLOTRIMAZOLE] | 69.3
CN1CCN(C2=Nc3cc(Cl)ccc3Nc3ccccc32)CC1 [CLOZAPINE] | 47.5
COc1ccc2c3c1O[C@H]1[C@@H](O)C=C[C@H]4[C@@H](C2)N(C)CC[C@@]341 [CODEINE] | 39.1
COc1cc2c(c(OC)c1OC)-c1ccc(OC)c(=O)cc1[C@@H](NC(C)=O)CC2 [COLCHICINE] | 31.9
C[C@]12C[C@H](O)[C@H]3[C@@H](CCC4=CC(=O)CC[C@@]43C)[C@@H]1CC[C@@H]2C(=O)CO [CORTICOSTERONE] | 33.5
CN1CC(=O)NC1=N [CREATININE] | 13.3
CC(=O)[C@@]1(O)CC[C@H]2[C@@H]3C=C(Cl)C4=CC(=O)[C@@H]5C[C@@H]5[C@]4(C)[C@H]3CC[C@@]21C [CYPROTERONE] | 61.6

Compound | inhibition at 100 µM [%]
NCCS [CYSTEAMINE] | 2.4
CN1C(=O)CN=C(c2ccccc2)c2cc(Cl)ccc21 [DIAZEPAM] | 5
O=C(O)Cc1ccccc1Nc1c(Cl)cccc1Cl [DICLOFENAC] | -3.7
COc1cc2nc(N3CCN(C(=O)C4COc5ccccc5O4)CC3)nc(N)c2cc1OC (stereo not drawn) [DOXAZOSIN] | 85.6
C[C@H]1c2cccc(O)c2C(=O)C2=C(O)[C@]3(O)C(=O)C(C(N)=O)=C(O)[C@@H](N(C)C)[C@@H]3[C@@H](O)[C@@H]21 [DOXYCYCLINE] | 27.4
O=C1Nc2ccc(Cl)cc2[C@@](C#CC2CC2)(C(F)(F)F)O1 [EFAVIRENZ] | 37
NCCCC(N)(C(=O)O)C(F)F (stereo not drawn) [EFLORNITHINE] | 5.5
CN1C[C@H](C(=O)N[C@]2(C)O[C@@]3(O)[C@@H]4CCCN4C(=O)[C@H](Cc4ccccc4)N3C2=O)C=C2c3cccc4[nH]cc(c34)C[C@H]21 [ERGOTAMINE] | 16.7
CC[C@H]1OC(=O)[C@H](C)[C@@H](O[C@H]2C[C@@](C)(OC)[C@@H](O)[C@H](C)O2)[C@H](C)[C@@H](O[C@@H]2O[C@H](C)C[C@H](N(C)C)[C@H]2O)[C@](C)(O)C[C@@H](C)C(=O)[C@H](C)[C@@H](O)[C@]1(C)O [ERYTHROMYCIN] | 14
COC(=O)CCc1ccc(OCC(O)CNC(C)C)cc1 (stereo not drawn) [ESMOLOL] | 31.2
C[C@]12CC[C@@H]3c4ccc(O)cc4CC[C@H]3[C@@H]1CC[C@@H]2O [ESTRADIOL] | 83.5
COc1cc([C@@H]2c3cc4c(cc3[C@@H](O[C@@H]3O[C@@H]5CO[C@@H](C)O[C@H]5[C@H](O)[C@H]3O)[C@H]3COC(=O)[C@H]23)OCO4)cc(OC)c1O [ETOPOSIDE] | 7.5
CCOC(=O)C1=C(C)NC(C)=C(C(=O)OC)C1c1cccc(Cl)c1Cl (stereo not drawn) [FELODIPINE] | 15.5
CC(C)OC(=O)C(C)(C)Oc1ccc(C(=O)c2ccc(Cl)cc2)cc1 [FENOFIBRATE] | 0.2
O=c1[nH]cc(F)c(=O)[nH]1 [FLUOROURACIL] | 0.9
CC(C)C(=O)Nc1ccc([N+](=O)[O-])c(C(F)(F)F)c1 [FLUTAMIDE] | 34.1
Nc1nc2ncc(CNc3ccc(C(=O)N[C@@H](CCC(=O)O)C(=O)O)cc3)nc2c(=O)[nH]1 [FOLIC ACID] | 33
NS(=O)(=O)c1cc(C(=O)O)c(NCc2ccco2)cc1Cl [FUROSEMIDE] | 11.7
NCC1(CC(=O)O)CCCCC1 [GABAPENTIN] | 15.1
Nc1nc(O)c2ncn(COC(CO)CO)c2n1 [GANCICLOVIR] | 10.5
Cc1cnc(C(=O)NCCc2ccc(S(=O)(=O)NC(=O)NC3CCCCC3)cc2)cn1 [GLIPIZIDE] | -12.7
N[C@H]1C(O)O[C@H](CO)[C@@H](O)[C@@H]1O (stereo partly drawn) [GLUCOSAMINE] | 13.9
COc1ccc(Cl)cc1C(=O)NCCc1ccc(S(=O)(=O)NC(=O)NC2CCCCC2)cc1 [GLYBURIDE] | 0.3

Same assay, conditions: hek293

Compound | inhibition at 100 µM [%]
Cn1cnc([N+](=O)[O-])c1Sc1ncnc2nc[nH]c12 [AZATHIOPRINE] | 4.2
C[N+](C)(C)CCO [CHOLINE] | 21.3
CN/C(=N/CCSCc1nc[nH]c1C)NC#N [CIMETIDINE] | 8.1
O=P1(N(CCCl)CCCl)NCCCO1 (stereo not drawn) [CYCLOPHOSPHAMIDE ANHYDROUS] | 4.7
CC(C)N(CCC(C(N)=O)(c1ccccc1)c1ccccn1)C(C)C (stereo not drawn) [DISOPYRAMIDE] | 68.8
NCCc1ccc(O)c(O)c1 [DOPAMINE] | 11.8
CNC[C@H](O)c1ccc(O)c(O)c1 [EPINEPHRINE] | 29.1
NC(N)=Nc1nc(CSCCC(N)=NS(N)(=O)=O)cs1 [FAMOTIDINE] | 13.9
NCCc1c[nH]cn1 [HISTAMINE] | 4.1
